Experimental data from patent publication US4937346A, “Phenyl-azacykloalkanes” (Carlsson; Per Arvid Emil, priority 1979, dated 1990).
Like-named read-outs stand apart in the source and are kept apart here.

How the values were obtained:
[1] = test system: postsynaptic dopaminergic receptor; assay: Antagonism of apomorphine-induced locomotor stimulation; type: in vivo, rat
Method: 3. Evidence for postsynaptic dopminergic receptor antagonist activity of (-)-3-PPP.
The locomotor stimulating action of the dopamine receptor aqonist apomorphine is antagonized by (-)-3-PPP. […] Thus the postsynaptic receptor antagonist activity requires a larger dose than the presynaptic receptor agonist activity, which is evident after doses down to 0.25 mg/kg.
Further, (-)-3-PPP and racemic 3-PPP have been compared regarding antagonism of apomorphine-induced locomotor stimulation. Either form of 3-PPP was injected subcutaneously in a dose of 8 mg/kg 20 min and apomorphine in a dose of 1 mg/kg subcutaneously 5 min before placing the rats in the Motron for 30 min. Shown are the counts per 30 min., means± s.e.m. and number of experiments (n).

[2] = test system: central postsynaptic DA-receptor; assay: Locomotor activity in reserpine-pretreated rats, comparison of compound 4 with two known dopaminergic agonists; type: in vivo, rat
Method: Rats (150-300 g) pretreated with reserpine (10 mg/ kg i.p., 6 h before) were given either phys. saline, compound 4 (100 μmol/kg), N-n-propyl-3-(3,4-dihydroxyphenyl)piperidine (100 μmol/kg) or apomorphine ([…]) subcutaneously and the locomotor activity (accumulated counts 0-60 min.) was quantified by means of Motron boxes (see under 4 above).

[3] = test system: postsynaptic DA receptors; assay: Antagonism of the reserpine-induced "neuroleptic syndrome" in the rat; type: in vivo; conditions: s.c., different doses, not even at nearly lethal doses
Excerpt: 1. Antagonism of the reserpine-induced "neuroleptic syndrome" in the rat
Depletion of the monoamine stores with reserpine brings about a "neuroleptic syndrome" characterized by hypomotility, catalepsy, muscle rigidity, hunch-backed posture as well as a number of other central and peripheral signs of monoamine depletion. This syndrome can be reversed by the administration of drugs that stimulate postsynaptic DA receptors directly or indirectly, e.g. apomorphine, L-Dopa.
Rats (150-300 g) pretreated with reserpine (10 mg/kg i.p., 6 h before) were given compound 4 subcutaneously at different doses.

[4] = test system: rat brain tyrosine hydroxylation; assay: In-vivo determination of rat brain tyrosine hydroxylation (Dopa formation after NSD 1015, reserpine-pretreated rats); conditions: sc, reserpine-pretreated rats, Dopa level
Method: 2. In-vivo determination of rat brain tyrosine hydroxylation.
The compounds under evaluation were tested biochemically for central DA-receptor (pre- and/or postsynaptic) stimulating activity. The concept of this biochemical screening method is that a DA-receptor agonist will stimulate the receptor and through regulatory feedback systems effect a decline in tyrosine hydroxylase activity and thus a subsequent reduction in the synthesis rate for DA in the presynaptic neuron. Dopa formation, as determined after in-vivo inhibition of the aromatic L-amino acid decarboxylase with NSD 1015 (3-hydroxybenzyl-hydrazine hydrochloride), is taken as an indirect measure of DA synthesis rate.
(§1) Rats (150-300 g) pretreated with reserpine were given the compounds under evaluation. Gross behavioral observations (changes in motility, stereotypies etc.) were made in order to evaluate possible postsynaptic dopamine receptor activity. Subsequent administration of NSD 1015, decapitation, brain dissection (corpora striate and the limbic fore-brain), homogenization, centrifugation, ion-exchange chromatography and spectrofluorimetric measurements (all as described in detail by Wikstrom et al., in J. Med. Chem. 21, 864-867, 1978, and references cited therein), gave the actual Dopa levels. Several doses (n=4-6) were tested in order to obtain dose-response curves for each compound and brain area. The dose of a compound producing a half-maximal decrease in the Dopa level in the rat brain part was then estimated.

DA autoreceptors [5] = assay: Antagonism of γ-butyrolactone (GBL)-induced increase in rat brain DA synthesis rate; type: in vivo
Method: 3. Antagonism ofγ-butyrolactone (GBL)-induced increase in rat brain DA synthesis rate.
The administration of GBL in anesthetic doses inhibits nerve impulse flow in central DA neurons, thus resulting in a loss of the impulse-mediated feedback control of tyrosine hydroxylase activity and in a subsequent increase in transmitter synthesis rate (which is determined as described under 2 above). Since the GBL inhibition precludes neuronal feedback actions, antagonistic effects exerted by DA-receptor agonists upon the GBL-induced increase in synthesis are in all probability to be ascribed to their stimulating the DA autoreceptors present in the terminal area of the DA neurons.
Rats (150-300 g), were given compound 4 subcutaneously at several doses (n=7) followed by GBL (750 mg/kg i.p., 5 min. later) and NSD 1015 (100 mg/kg i.p., 10 min. later). By a subsequent procedure according to 2 above the Dopa levels (representing the DA-synthesis rates) were determined. […] The maximal reversal of the GBL-induced increase in DA synthesis rate was approximately 160% in the limbic system and 110% in corpus striatum.

DA autoreceptors [6] = assay: Effect on spontaneous locomotor activity in the rat; type: in vivo; conditions: for Motor activity: 0-15 min
Excerpt: 4. Effect on spontaneous locomotor activity in the rat.
Untreated animals exposed to a new environment display an initial high motor activity which then gradually declines over a period of time. Administration of DA-receptor agonists (e.g. apomorphine) in doses where preferential autoreceptor stimulation is likely to occur, causes a depression of the spontaneous motility mentioned above, considered to be due to the DA autoreceptor-mediated impairment of central DA transmission.
Rats (150-300 g) were injected subcutaneously with several doses of compounds 4 and after 5 minutes they were individually placed in motility boxes ("M/P 40 Fc Electronic Motility Meter". Motron Products, Stockholm) and the motor activity (0-30 min.) was quantified. […] Moreover, there seems to be a correlation between the decrease in spontaneous locomotion and the degree of antagonism of the GBL-induced increase in DA synthesis (cf. 3 above) in the limbic areas of rat brain exerted by compound 4, the per cent decrease of motor activity being roughly 0.6 times the per cent reversal of GBL-induced increase in DA-synthesis rate.

[7] = test system: postsynaptic dopamine receptor; assay: Gross behavioral observations for postsynaptic dopamine receptor activity; type: in vivo, rat; conditions: gross behavioural observations, any dose tested
Excerpt: as §1

[8] = test system: dopaminergic receptors (presynaptic and postsynaptic); conditions: racemic mixtures; cited from earlier work

Br.CCCN1CCCC(c2cccc(O)c2)C1 (racemic) [Compound 4, N-n-propyl-3-(3-hydroxyphenyl)piperidine hydrobromide]
antagonism of apomorphine locomotor stimulation ([1]; 8 mg/kg s.c.): did not
counts per 30 min., with apomorphine ([1]; 8 mg/kg s.c. + apomorphine 1 mg/kg s.c., means ± s.e.m., n=5): 443 ± 26 counts per 30 min.
Motor activity ([2]; 0-60 min postinj., 100 μmol/kg s.c.): 55 ± 4 acc. counts
central postsynaptic DA-receptor stimulation / motor response ([2]; s.c.): failed to elicit a motor response that differed more than slightly from control values
antagonism of the reserpine-induced syndrome [3]: no antagonism of the reserpine-induced syndrome was observed
ED50 ([4]; limbic, read-out: ED50 Limbic): 2.7 µmol/kg
ED50 ([4]; striatum, read-out: ED50 Striatum): 2.7 µmol/kg
% Reversal of GBL-induced increase in dopamine synthesis rate (DA autoreceptors [5]; 0.5 mg/kg s.c., corpus striatum): 0%
% Reversal of GBL-induced increase in dopamine synthesis rate (DA autoreceptors [5]; 0.5 mg/kg s.c., limbic system): 58%
% Reversal of GBL-induced increase in dopamine synthesis rate (DA autoreceptors [5]; 1.0 mg/kg s.c., corpus striatum): 17%
% Reversal of GBL-induced increase in dopamine synthesis rate (DA autoreceptors [5]; 1.0 mg/kg s.c., limbic system): 75%
% Reversal of GBL-induced increase in dopamine synthesis rate (DA autoreceptors [5]; 2.0 mg/kg s.c., corpus striatum): 34%
% Reversal of GBL-induced increase in dopamine synthesis rate (DA autoreceptors [5]; 2.0 mg/kg s.c., limbic system): 92%
% Reversal of GBL-induced increase in dopamine synthesis rate (DA autoreceptors [5]; 4.0 mg/kg s.c., corpus striatum): 51%
% Reversal of GBL-induced increase in dopamine synthesis rate (DA autoreceptors [5]; 4.0 mg/kg s.c., limbic system): 109%
% Reversal of GBL-induced increase in dopamine synthesis rate (DA autoreceptors [5]; 8.0 mg/kg s.c., corpus striatum): 68%
% Reversal of GBL-induced increase in dopamine synthesis rate (DA autoreceptors [5]; 8.0 mg/kg s.c., limbic system): 126%
% Reversal of GBL-induced increase in dopamine synthesis rate (DA autoreceptors [5]; 16.0 mg/kg s.c., corpus striatum): 86%
% Reversal of GBL-induced increase in dopamine synthesis rate (DA autoreceptors [5]; 16.0 mg/kg s.c., limbic system): 142%
Dopa concentration (DA autoreceptors [5]; 32 mg/kg s.c. + GBL, limbic system, n=5): 191 ± 16 ng per g tissue
Dopa concentration (DA autoreceptors [5]; 32 mg/kg s.c. + GBL, striatum, n=5): 1063 ± 74 ng per g tissue
maximal reversal of the GBL-induced increase in DA synthesis rate (DA autoreceptors [5]; corpus striatum): ~110%
blockade by haloperidol of the antagonism of GBL-induced increase (DA autoreceptors [5]; haloperidol): the antagonism could be blocked by haloperidol
Dopa concentration (DA autoreceptors [5]; haloperidol 1 mg/kg i.p. + 32 mg/kg compound 4, limbic system, n=3): 387 ± 32 ng per g tissue
Dopa concentration (DA autoreceptors [5]; haloperidol 1 mg/kg i.p. + 32 mg/kg compound 4, striatum, n=3): 2193 ± 53 ng per g tissue
maximal reversal of the GBL-induced increase in DA synthesis rate (DA autoreceptors [5]; limbic system): approximately 160%
dose dependence of antagonism of GBL-induced increase in DA synthesis rate (DA autoreceptors [5]; s.c., several doses): dose-dependently antagonized the GBL-induced increase in DA synthesis rate
Motor activity (DA autoreceptors [6]; glucose i.p. + compound 4 0.5 mg/kg s.c., n=5): 43 ± 9 acc. counts
Motor activity (DA autoreceptors [6]; haloperidol 0.02 mg/kg i.p. + compound 4 0.5 mg/kg s.c., n=7): 80 ± 10 acc. counts
reversal of sedative effect by haloperidol (DA autoreceptors [6]; haloperidol 0.02 mg/kg i.p. 30 min before, compound 4 0.5 mg/kg): at least partly reversed the sedative effect
per cent decrease of motor activity relative to per cent reversal of GBL-induced increase in DA-synthesis rate (DA autoreceptors [6]; limbic areas, correlation): roughly 0.6 times
locomotor stimulation (DA autoreceptors [6]; regardless of the dose used): No locomotor stimulation was ever seen
maximal decrease of motor activity from control values (DA autoreceptors [6]; s.c., 0-30 min, at about 8 mg/kg): 75%
dose at which maximal effect is attained (DA autoreceptors [6]; s.c., 75% decrease from control values): about 8 mg/kg
dose dependence of motor activity effect (DA autoreceptors [6]; s.c., several doses): clear dose-dependent decrease of the initial high motor activity
postsynaptic DA-receptor activation [7]: selectivity for the autoreceptors
activation of classical postsynaptic dopaminergic receptors [8]: no concomitant activation of the classical postsynaptic dopaminergic receptors could be detected
